Assay in all cases: biochemical
Holding throughout (design): DiscoverX kinase panel, active-site competition binding (KINOMEscan type), percent of control at one concentration
Common to all, as to settings: competition binding, percent of control

One assay concerns the target T1, TIE2 (Homo sapiens, UniProt Q02763).
T1 construct: gene TEK
An excerpt: (§1) To investigate the potential therapeutic benefit of inhibiting RIP1, we developed GNE684 or (S)-N-((S)-7-methoxy-1-methyl-2-oxo-2,3,4,5-tetrahydro-1H-pyrido[3,4-b]azepin-3-yl)-5-phenyl-6,7-dihydro-5H-pyrrolo[1,2-b][1,2,4]triazole-2-carboxamide with cross-species potency against RIP1, exquisite kinase selectivity, and favorable pharmacological properties (Fig. 1a–h, S1, Tables S1 and S2, SI file 1). […] (Fig. 1b, S1, and Table S1). […] GNE684 inhibited human RIP1 potently in vitro, and mouse and rat RIP1 with slightly less potency (Fig. 1d). Accordingly, it inhibited TNF-induced necroptosis in human HT-29, mouse L929, or rat H9c2 cells (Fig. 1e). The cellular potency of GNE684 was confirmed in a human whole blood assay using TBZ (TNF, IAP antagonist BV6, and pan-caspase inhibitor zVAD) or LZ (LPS plus zVAD) to trigger necroptosis and the release of IL-1α and IL-1β (Fig. 1f).

The target of another assay is ALK(C1156Y) (Homo sapiens, UniProt Q9UM73, C1156Y).
From the text: as §1

A further assay addresses ACVRL1 (Homo sapiens, UniProt P37023).
From the text: as §1

The target in assay [1] is T2, JAK3(JH1domain-catalytic) (Homo sapiens, UniProt P52333).
T2 construct: JH1domain-catalytic
From the text: as §1

The target of a further assay is DAPK1 (Homo sapiens, UniProt P53355).
DAPK1, sequence (P53355 whole entry): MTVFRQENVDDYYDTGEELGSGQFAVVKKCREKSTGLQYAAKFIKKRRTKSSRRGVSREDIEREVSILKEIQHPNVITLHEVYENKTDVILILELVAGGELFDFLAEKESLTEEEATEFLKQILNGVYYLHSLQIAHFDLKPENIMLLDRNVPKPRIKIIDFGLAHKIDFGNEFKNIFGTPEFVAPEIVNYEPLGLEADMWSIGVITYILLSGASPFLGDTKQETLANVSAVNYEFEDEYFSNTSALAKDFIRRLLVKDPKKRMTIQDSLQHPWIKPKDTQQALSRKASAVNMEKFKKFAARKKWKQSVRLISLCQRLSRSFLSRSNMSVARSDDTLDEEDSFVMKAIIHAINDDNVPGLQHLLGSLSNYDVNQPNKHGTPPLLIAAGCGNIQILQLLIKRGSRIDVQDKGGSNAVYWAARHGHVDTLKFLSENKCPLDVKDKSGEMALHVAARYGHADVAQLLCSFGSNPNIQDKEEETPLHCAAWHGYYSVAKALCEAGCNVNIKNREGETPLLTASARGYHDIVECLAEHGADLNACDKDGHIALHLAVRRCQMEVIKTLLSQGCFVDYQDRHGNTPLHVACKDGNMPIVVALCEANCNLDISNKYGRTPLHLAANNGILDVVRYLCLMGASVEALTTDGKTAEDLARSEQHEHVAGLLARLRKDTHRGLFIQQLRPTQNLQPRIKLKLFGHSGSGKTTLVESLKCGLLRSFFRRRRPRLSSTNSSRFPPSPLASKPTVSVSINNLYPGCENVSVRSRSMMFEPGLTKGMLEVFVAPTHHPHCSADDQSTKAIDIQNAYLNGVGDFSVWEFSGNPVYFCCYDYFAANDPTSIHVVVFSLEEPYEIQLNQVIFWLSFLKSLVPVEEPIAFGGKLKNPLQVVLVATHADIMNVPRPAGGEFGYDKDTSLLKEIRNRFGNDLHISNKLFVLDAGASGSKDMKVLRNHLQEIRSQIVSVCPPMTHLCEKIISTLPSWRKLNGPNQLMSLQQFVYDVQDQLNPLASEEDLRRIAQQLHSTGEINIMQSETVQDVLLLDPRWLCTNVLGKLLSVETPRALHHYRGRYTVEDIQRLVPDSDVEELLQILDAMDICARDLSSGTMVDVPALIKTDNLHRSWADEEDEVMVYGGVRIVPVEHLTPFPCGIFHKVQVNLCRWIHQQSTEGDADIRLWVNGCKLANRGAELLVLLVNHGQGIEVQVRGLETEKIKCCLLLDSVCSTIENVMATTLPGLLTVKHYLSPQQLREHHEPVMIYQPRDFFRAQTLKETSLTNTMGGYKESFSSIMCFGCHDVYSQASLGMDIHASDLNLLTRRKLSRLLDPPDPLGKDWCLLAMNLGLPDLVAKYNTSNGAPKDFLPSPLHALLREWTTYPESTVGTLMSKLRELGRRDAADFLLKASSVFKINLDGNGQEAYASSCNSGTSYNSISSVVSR
From the text: as §1

For another assay, the target named is TSSK3 (Homo sapiens, UniProt Q96PN8).
TSSK3, sequence (Q96PN8 whole entry): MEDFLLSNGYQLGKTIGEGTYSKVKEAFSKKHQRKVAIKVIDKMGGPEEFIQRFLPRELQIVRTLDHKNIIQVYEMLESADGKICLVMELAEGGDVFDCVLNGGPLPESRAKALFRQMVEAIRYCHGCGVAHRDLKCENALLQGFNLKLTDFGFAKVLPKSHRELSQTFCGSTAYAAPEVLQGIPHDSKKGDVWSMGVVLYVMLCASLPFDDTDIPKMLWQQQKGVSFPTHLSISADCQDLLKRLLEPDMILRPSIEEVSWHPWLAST
From the text: as §1

A further assay addresses T3, ERK2 (Homo sapiens, UniProt P28482).
T3 construct: gene MAPK1
From the text: as §1

Assay [2] has as its target T4, ABL1(T315I)-phosphorylated (Homo sapiens, UniProt P00519, T315I).
T4 construct: phosphorylated
From the text: as §1

The target of a further assay is HIPK4 (Homo sapiens, UniProt Q8NE63).
From the text: as §1

In the next assay the target is PIK3C2B (Homo sapiens, UniProt O00750).
From the text: as §1

The target in assay [3] is T5, RSK1(Kin.Dom.2-C-terminal) (Homo sapiens, UniProt Q15418).
T5 construct: gene RPS6KA1; Kin.Dom.2-C-terminal
From the text: as §1

In the next assay the target is CDK2 (Homo sapiens, UniProt P24941).
From the text: as §1

The next assay concerns the target ALK (Homo sapiens, UniProt Q9UM73).
From the text: as §1

The next assay addresses DYRK2 (Homo sapiens, UniProt Q92630).
From the text: as §1

For the next assay, the target named is T6, NDR2 (Homo sapiens, UniProt Q9Y2H1).
T6 construct: gene STK38L
T6 sequence (Q9Y2H1 whole entry): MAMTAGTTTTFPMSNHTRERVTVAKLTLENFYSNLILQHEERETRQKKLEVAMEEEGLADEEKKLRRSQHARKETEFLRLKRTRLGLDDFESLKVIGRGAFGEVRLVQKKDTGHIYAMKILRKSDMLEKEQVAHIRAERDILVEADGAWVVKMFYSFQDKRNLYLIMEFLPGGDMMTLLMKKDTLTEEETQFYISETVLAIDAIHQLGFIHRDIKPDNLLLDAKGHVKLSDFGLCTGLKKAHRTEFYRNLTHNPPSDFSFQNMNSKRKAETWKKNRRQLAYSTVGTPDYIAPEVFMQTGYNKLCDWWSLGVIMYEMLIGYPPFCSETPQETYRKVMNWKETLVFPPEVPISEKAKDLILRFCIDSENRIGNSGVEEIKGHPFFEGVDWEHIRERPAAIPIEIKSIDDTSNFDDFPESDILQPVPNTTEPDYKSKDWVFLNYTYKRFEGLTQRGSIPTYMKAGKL
From the text: as §1

The target in the next assay is PRKCH (Homo sapiens, UniProt P24723).
PRKCH, sequence (P24723 whole entry): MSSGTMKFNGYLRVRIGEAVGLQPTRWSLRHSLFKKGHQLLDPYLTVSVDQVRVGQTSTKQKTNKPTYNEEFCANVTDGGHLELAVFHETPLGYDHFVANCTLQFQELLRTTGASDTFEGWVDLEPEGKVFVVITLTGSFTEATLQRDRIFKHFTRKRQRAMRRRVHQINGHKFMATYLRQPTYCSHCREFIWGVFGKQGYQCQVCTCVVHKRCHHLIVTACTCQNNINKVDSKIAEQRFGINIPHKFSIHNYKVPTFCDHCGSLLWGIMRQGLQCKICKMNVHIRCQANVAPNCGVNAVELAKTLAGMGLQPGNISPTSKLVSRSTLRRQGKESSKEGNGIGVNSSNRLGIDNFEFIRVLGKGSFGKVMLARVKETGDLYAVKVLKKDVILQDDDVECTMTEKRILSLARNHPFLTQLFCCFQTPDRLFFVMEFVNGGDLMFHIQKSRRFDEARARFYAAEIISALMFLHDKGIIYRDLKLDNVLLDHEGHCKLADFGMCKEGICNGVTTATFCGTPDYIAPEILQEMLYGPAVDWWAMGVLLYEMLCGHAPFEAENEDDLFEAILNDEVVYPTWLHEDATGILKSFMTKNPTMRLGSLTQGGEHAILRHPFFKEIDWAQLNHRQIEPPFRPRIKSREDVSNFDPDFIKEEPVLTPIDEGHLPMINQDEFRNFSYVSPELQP
From the text: as §1

For the next assay, the target named is IRAK3 (Homo sapiens, UniProt Q9Y616).
From the text: as §1

The target in assay [4] is T7, JAK1(JH1domain-catalytic) (Homo sapiens, UniProt P23458).
T7 construct: JH1domain-catalytic
From the text: as §1

For another assay, the target named is TIE1 (Homo sapiens, UniProt P35590).
From the text: as §1

The target of another assay is PRKD1 (Homo sapiens, UniProt Q15139).
From the text: as §1

The target of a further assay is T8, DCAMKL1 (Homo sapiens, UniProt O15075).
T8 construct: gene DCLK1
T8 sequence (O15075 whole entry): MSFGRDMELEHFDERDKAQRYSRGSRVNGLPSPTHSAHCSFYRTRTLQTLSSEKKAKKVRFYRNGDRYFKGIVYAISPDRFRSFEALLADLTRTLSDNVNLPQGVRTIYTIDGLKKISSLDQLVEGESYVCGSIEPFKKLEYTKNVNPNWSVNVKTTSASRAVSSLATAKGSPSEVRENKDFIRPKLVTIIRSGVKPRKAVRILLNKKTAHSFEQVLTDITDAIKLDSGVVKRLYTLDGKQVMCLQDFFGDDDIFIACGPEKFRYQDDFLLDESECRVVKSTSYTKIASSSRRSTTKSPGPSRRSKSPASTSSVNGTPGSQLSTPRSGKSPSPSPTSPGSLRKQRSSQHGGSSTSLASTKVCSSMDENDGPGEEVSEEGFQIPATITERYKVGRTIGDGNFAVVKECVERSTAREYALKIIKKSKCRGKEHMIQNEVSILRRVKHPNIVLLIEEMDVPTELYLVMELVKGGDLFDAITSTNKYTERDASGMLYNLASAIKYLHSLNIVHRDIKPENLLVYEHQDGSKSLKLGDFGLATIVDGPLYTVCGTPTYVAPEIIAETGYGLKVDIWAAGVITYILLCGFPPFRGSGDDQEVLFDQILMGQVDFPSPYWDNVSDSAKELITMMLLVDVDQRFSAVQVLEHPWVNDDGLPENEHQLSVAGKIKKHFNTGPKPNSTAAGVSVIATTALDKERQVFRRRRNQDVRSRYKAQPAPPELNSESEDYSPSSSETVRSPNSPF
From the text: as §1

T3 sequence (P28482 whole entry): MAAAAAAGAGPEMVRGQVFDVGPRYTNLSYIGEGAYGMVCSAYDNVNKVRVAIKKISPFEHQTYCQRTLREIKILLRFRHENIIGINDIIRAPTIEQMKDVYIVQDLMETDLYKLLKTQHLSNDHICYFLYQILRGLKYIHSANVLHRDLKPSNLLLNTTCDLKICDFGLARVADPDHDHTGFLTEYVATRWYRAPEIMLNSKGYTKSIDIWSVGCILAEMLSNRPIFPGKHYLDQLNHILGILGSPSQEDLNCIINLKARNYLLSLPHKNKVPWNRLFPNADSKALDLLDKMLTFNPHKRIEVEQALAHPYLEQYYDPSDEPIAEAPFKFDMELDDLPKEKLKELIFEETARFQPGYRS
T1 sequence (Q02763 whole entry): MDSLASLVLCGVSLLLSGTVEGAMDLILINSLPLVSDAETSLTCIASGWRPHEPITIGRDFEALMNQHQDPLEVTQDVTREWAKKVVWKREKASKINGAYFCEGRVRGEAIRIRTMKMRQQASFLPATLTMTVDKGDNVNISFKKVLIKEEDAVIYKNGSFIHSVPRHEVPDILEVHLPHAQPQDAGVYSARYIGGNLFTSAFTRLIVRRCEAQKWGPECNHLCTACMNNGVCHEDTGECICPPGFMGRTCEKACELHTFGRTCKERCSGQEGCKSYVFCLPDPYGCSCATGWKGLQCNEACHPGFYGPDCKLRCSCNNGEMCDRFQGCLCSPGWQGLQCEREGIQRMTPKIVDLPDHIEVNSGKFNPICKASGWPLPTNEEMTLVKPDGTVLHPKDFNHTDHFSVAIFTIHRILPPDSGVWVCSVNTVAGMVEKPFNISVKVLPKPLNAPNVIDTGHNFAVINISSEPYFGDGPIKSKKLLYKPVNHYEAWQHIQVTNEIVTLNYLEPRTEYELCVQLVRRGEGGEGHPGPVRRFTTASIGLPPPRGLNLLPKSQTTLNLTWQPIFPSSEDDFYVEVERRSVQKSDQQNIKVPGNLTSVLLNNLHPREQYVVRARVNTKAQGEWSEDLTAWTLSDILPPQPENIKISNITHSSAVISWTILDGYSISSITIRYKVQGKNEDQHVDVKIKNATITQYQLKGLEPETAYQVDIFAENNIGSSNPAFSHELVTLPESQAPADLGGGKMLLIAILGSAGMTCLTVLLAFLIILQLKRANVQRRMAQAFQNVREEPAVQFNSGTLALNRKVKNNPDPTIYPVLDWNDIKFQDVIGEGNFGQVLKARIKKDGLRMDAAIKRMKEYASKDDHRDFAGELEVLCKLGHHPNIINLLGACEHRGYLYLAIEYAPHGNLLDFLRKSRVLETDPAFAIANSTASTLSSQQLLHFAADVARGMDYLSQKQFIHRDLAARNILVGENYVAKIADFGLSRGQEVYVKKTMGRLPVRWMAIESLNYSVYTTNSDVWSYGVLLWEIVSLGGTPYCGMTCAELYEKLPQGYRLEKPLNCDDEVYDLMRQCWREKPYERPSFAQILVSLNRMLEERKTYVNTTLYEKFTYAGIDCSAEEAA

Take `COc1cc2c(cn1)N(C)C(=O)[C@@H](NC(=O)c1nc3n(n1)[C@H](c1ccccc1)CC3)CC2` [GNE684, (S)-N-((S)-7-methoxy-1-methyl-2-oxo-2,3,4,5-tetrahydro-1H-pyrido[3,4-b]azepin-3-yl)-5-phenyl-6,7-dihydro-5H-pyrrolo[1,2-b][1,2,4]triazole-2-carboxamide]: the remaining binding at 10 µM was determined as 92% at TIE2; 96% at ALK(C1156Y); 87% at ACVRL1; 97% in [1]; 88% on DAPK1; 96% at TSSK3. The remaining binding at 10 µM at ERK2 amounted to 100%; in assay [2] it was 81%; on HIPK4, 100%; at PIK3C2B it was 93%; in [3], 100%; at CDK2, 100%. The remaining binding at 10 µM is 81% on ALK; 87% on DYRK2; 100% at NDR2; 89% at PRKCH; 100% on IRAK3; 100% in assay [4]. In addition, the remaining binding at 10 µM amounted to 88% on TIE1, 100% on PRKD1 and 67% on DCAMKL1.

The values above are taken from PMC7206119, “RIP1 inhibition blocks inflammatory diseases but not tumor growth or metastases” (Cell Death and Differentiation, 2019).
